Data published in the supplement of paper PMC10307832.

Tests used:
Test in all cases: relative viability (nuclei count vs DMSO), 5 days (fraction); higher = more cells survive
[1] = tested on: 201T
Summary of the method: (§1)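 For relative viability, nuclei counts in treated wells were divided by those in vehicle wells. Lung cancer cell lines had been pin-tool dosed in 1536-well plates the day after seeding and cultured for 5 days, then fixed and stained in one step (final 0.05% Triton X-100, 1% formaldehyde, 1 ug/ml Hoechst) and imaged at 4×. Doses were one drug alone or a fixed anchor-drug dose plus five library-drug doses (not always all listed) in √10 steps, and values are duplicate-plate medians.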

[2] = tested on: BEN
Summary of the method: as §1

[3] = tested on: EMC-BAC-2
Summary of the method: as §1

[4] = tested on: HARA
Summary of the method: as §1

[5] = tested on: HCC-44
Summary of the method: as §1

[6] = tested on: LCLC-103H
Summary of the method: as §1

[7] = tested on: LOU-NH91
Summary of the method: as §1

[8] = tested on: NCI-H1666
Summary of the method: as §1

[9] = tested on: NCI-H1993
Summary of the method: as §1

[10] = tested on: NCI-H2009
Summary of the method: as §1

[11] = tested on: NCI-H2023
Summary of the method: as §1

[12] = tested on: NCI-H2087
Summary of the method: as §1

[13] = tested on: NCI-H2126
Summary of the method: as §1

[14] = tested on: NCI-H2347
Summary of the method: as §1

[15] = tested on: NCI-H23
Summary of the method: as §1

[16] = tested on: NCI-H3122
Summary of the method: as §1

[17] = tested on: NCI-H441
Summary of the method: as §1

[18] = tested on: NCI-H596
Summary of the method: as §1

[19] = tested on: NCI-H647
Summary of the method: as §1

[20] = tested on: NCI-H650
Summary of the method: as §1

[21] = tested on: NCI-H727
Summary of the method: as §1

[22] = tested on: NCI-H838
Summary of the method: as §1

SMILES: O=C(O)c1ccc(-c2c[nH]c3ncc(-c4ccccc4)cc23)cc1C1CCCC1 + CC(C)C[C@H](NC(=O)[C@H](Cc1ccccc1)NC(=O)c1cnccn1)B(O)O [Bortezomib] (partner 0.002 µM)
- relative viability ([1]; first compound 0.04 µM): 1.08
- relative viability ([1]; first compound 0.1265 µM): 1.08
- relative viability ([1]; first compound 0.4 µM): 1.12
- relative viability ([1]; first compound 1.265 µM): 1.02
- relative viability ([2]; first compound 0.04 µM): 0.721
- relative viability ([2]; first compound 0.1265 µM): 0.778
- relative viability ([2]; first compound 0.4 µM): 0.907
- relative viability ([2]; first compound 1.265 µM): 0.796
- relative viability ([3]; first compound 0.04 µM): 1.02
- relative viability ([3]; first compound 0.1265 µM): 1.16
- relative viability ([3]; first compound 0.4 µM): 1.02
- relative viability ([3]; first compound 1.265 µM): 1.04
- relative viability ([4]; first compound 0.04 µM): 1.05
- relative viability ([4]; first compound 0.1265 µM): 1.28
- relative viability ([4]; first compound 0.4 µM): 1.1
- relative viability ([4]; first compound 1.265 µM): 1.08
- relative viability ([5]; first compound 0.04 µM): 0.945
- relative viability ([5]; first compound 0.1265 µM): 0.866
- relative viability ([5]; first compound 0.4 µM): 0.886
- relative viability ([5]; first compound 1.265 µM): 0.908
- relative viability ([6]; first compound 0.04 µM): 1.11
- relative viability ([6]; first compound 0.1265 µM): 1.15
- relative viability ([6]; first compound 0.4 µM): 1
- relative viability ([6]; first compound 1.265 µM): 1.05
- relative viability ([7]; first compound 0.04 µM): 0.484
- relative viability ([7]; first compound 0.1265 µM): 0.558
- relative viability ([7]; first compound 0.4 µM): 0.449
- relative viability ([7]; first compound 1.265 µM): 0.396
- relative viability ([8]; first compound 0.04 µM): 0.86
- relative viability ([8]; first compound 0.1265 µM): 0.813
- relative viability ([8]; first compound 0.4 µM): 0.739
- relative viability ([8]; first compound 1.265 µM): 0.304
- relative viability ([9]; first compound 0.04 µM): 1.18
- relative viability ([9]; first compound 0.4 µM): 1.14
- relative viability ([9]; first compound 1.265 µM): 0.871
- relative viability ([10]; first compound 0.04 µM): 0.997
- relative viability ([10]; first compound 0.1265 µM): 0.966
- relative viability ([10]; first compound 0.4 µM): 0.942
- relative viability ([10]; first compound 1.265 µM): 0.794
- relative viability ([11]; first compound 0.04 µM): 1.04
- relative viability ([11]; first compound 0.1265 µM): 1.08
- relative viability ([11]; first compound 0.4 µM): 1.09
- relative viability ([11]; first compound 1.265 µM): 0.699
- relative viability ([12]; first compound 0.04 µM): 0.963
- relative viability ([12]; first compound 0.1265 µM): 0.902
- relative viability ([12]; first compound 0.4 µM): 0.715
- relative viability ([12]; first compound 1.265 µM): 0.565
- relative viability ([13]; first compound 0.04 µM): 1.16
- relative viability ([13]; first compound 0.1265 µM): 1.13
- relative viability ([13]; first compound 0.4 µM): 1.1
- relative viability ([13]; first compound 1.265 µM): 1.02
- relative viability ([14]; first compound 0.04 µM): 1.03
- relative viability ([14]; first compound 0.1265 µM): 1.32
- relative viability ([14]; first compound 0.4 µM): 0.869
- relative viability ([14]; first compound 1.265 µM): 1.05
- relative viability ([15]; first compound 0.04 µM): 1.05
- relative viability ([15]; first compound 0.1265 µM): 1.21
- relative viability ([15]; first compound 0.4 µM): 0.958
- relative viability ([15]; first compound 1.265 µM): 1.11
- relative viability ([16]; first compound 0.04 µM): 0.976
- relative viability ([16]; first compound 0.1265 µM): 1.01
- relative viability ([16]; first compound 0.4 µM): 0.984
- relative viability ([16]; first compound 1.265 µM): 0.986
- relative viability ([17]; first compound 0.04 µM): 0.587
- relative viability ([17]; first compound 0.1265 µM): 0.59
- relative viability ([17]; first compound 0.4 µM): 0.246
- relative viability ([17]; first compound 1.265 µM): 0.289
- relative viability ([18]; first compound 0.04 µM): 0.935
- relative viability ([18]; first compound 0.1265 µM): 0.982
- relative viability ([18]; first compound 0.4 µM): 1.02
- relative viability ([18]; first compound 1.265 µM): 1.06
- relative viability ([19]; first compound 0.04 µM): 0.896
- relative viability ([19]; first compound 0.1265 µM): 1.19
- relative viability ([19]; first compound 0.4 µM): 1.3
- relative viability ([19]; first compound 1.265 µM): 0.772
- relative viability ([20]; first compound 0.04 µM): 0.746
- relative viability ([20]; first compound 0.1265 µM): 0.895
- relative viability ([20]; first compound 0.4 µM): 0.858
- relative viability ([20]; first compound 1.265 µM): 0.5
- relative viability ([21]; first compound 0.04 µM): 0.788
- relative viability ([21]; first compound 0.1265 µM): 0.99
- relative viability ([21]; first compound 0.4 µM): 0.906
- relative viability ([21]; first compound 1.265 µM): 0.783
- relative viability ([22]; first compound 0.04 µM): 0.814
- relative viability ([22]; first compound 0.1265 µM): 1.32
- relative viability ([22]; first compound 0.4 µM): 0.703
- relative viability ([22]; first compound 1.265 µM): 0.714
